We go through 2 compounds from publication PMC4350332 (Oncotarget, 2014).

The subject of experiment [1] is HSP-70 induction in PC-3 cells (biomarker for HSP-90 inhibition). Nature of the experiment: HSP-70 in-cell ELISA assay. The format is cell-based. Particulars: for EC50: PD marker (ELISA), PC-3 cells, 24 h. Here is the method:
DELFIA assay reagents (assay buffer, enhancement solution and europium-labeled secondary antibody) were obtained from Perkin Elmer (MD, USA). PC-3 cells were seeded (1×10^4 per well) into 96 well black-walled cell culture plates. The following day, the cells were treated with a 10 point tripling dilution series of test compound for 24 h followed by fixation with TBS containing 4% formaldehyde for 15 min at RT. The cells were then permeabilized the addition of permeabilization buffer (TBS containing 1% triton-X-100) and a further 15 min incubation at RT. The cells were then washed 3X with TBS, followed by the addition of quenching solution (TBS containing 1% H2O2), a 20 min incubation at RT and a further 3X wash with TBS. The permeabilized cells were then incubated for 30 minutes with blocking buffer (TBS containing 5% (w/v) dried milk) followed by a 90 min incubation with HSP-70 primary antibody (ENZO; 1:1000 dilution in TBS containing 200 μg/ml BSA). The wells were then washed 3X with wash buffer (TBS containing 0.1% Tween-20), followed by the addition of europium-labeled anti-mouse secondary antibody (1:1000 in DELFIA assay buffer) and a 1 h incubation at RT. The wells were then washed 3X with wash buffer followed by the addition of enhancement solution.

Experiment [2] addresses T1, HSP-90 (Homo sapiens, UniProt P08238).
T1 construct: made in house
As to the kind of experiment: HSP-90 fluorescence polarization assay. The format is binding. Particulars: read-out: HSP-90 FP, IC50. The procedure: (§1) The HSP-90ß FP assay was conducted as previously described.
(In fluorescence polarisation assays a small probe gives low polarisation when free and higher when bound to something large.)

Experiment [3] addresses T2, PDK-1 (Homo sapiens, UniProt Q15118). As to the kind of experiment: Isothermal calorimetry (ITC) binding affinity. Set-up: PDK-1: residues 30-436; made in house; host or cells: E. coli BL21. In general terms: In ITC the heat of successive injections is recorded.
In experiment [4] the target is T3, PDK-3 (Homo sapiens, UniProt Q15120).
T3 construct: PDK-3: residues 9-406; made in house; host or cells: E. coli BL21
T3 sequence (Q15120 9-406): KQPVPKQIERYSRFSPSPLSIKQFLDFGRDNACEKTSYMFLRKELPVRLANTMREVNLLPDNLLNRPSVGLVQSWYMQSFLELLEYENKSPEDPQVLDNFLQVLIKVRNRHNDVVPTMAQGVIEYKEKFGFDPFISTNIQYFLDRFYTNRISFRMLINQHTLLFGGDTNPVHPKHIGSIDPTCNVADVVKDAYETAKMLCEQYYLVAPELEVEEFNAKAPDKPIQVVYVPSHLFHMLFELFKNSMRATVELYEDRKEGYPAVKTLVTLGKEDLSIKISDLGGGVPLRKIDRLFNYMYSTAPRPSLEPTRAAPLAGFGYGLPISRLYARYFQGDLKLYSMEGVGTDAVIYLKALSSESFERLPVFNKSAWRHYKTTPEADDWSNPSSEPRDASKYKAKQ
As to the kind of experiment: DELFIA-based enzyme functional assay (E1 substrate), PDK-3. The format is biochemical. To be noted: data not shown.

For experiment [5], the system named is p(Ser^293)E1α in PC-3 cells. Nature of the experiment: Immunoblot time course of biomarker suppression in PC-3 cells. The format is cell-based. Particulars: Fig. 2F. Here is the method:
Cell lysates were prepared by washing cells with PBS followed by the addition of lysis buffer (2% SDS, 50 mM TRIS-pH 6.8) directly to the well. Equal amounts of lysate were loaded onto pre-cast 4-12% SDS-PAGE gels (Life technologies) followed by transfer to PVDF membrane. The membranes were blocked for 1 h in TBST containing 5% non-fat dried milk, followed by a 2 h incubation with the relevant primary antibody: PDH phospho(Ser^293)E1α (Genescript, custom rabbit polyclonal antibody), 1:600; PDH E1α (Abcam), 1:1000; PDP-1 (Sigma), 1:2000; PDK-1 (ENZO), 1:1000; HSP-70 (Santa Cruz), 1:5000; β-tubulin (Cell signaling technology), 1:1000. The membranes were then incubated with HRP-linked goat anti-rabbit or anti-mouse secondary antibodies (Santa Cruz) followed by visualization of immunoreactive bands by the addition of a chemiluminescent substrate (Millipore).
On the technique in general: Immunoblotting shows a protein as a band on a membrane.

Experiment [6] relates to hTert immortalized human foreskin fibroblast (HFF) cell line. Nature of the experiment: Glycolytic activity (L-lactate, D-glucose) in HFF cells. The format is cell-based. Particulars: 6 h, 0.25 g/L D-glucose, 2% dialyzed FCS; VER-246608 effect only at top concentration (27 μM). The procedure:
Pyruvate, L-lactate, D-glucose and L-alanine levels were determined using commercially available assay kits (Abcam) as per the manufacturer's instructions. […]
transformed and additional cancer cell lines. A, The indicated cell lines were seeded into […]
relevant media containing either 2 g/L D-glucose or D-galactose for 96 h. Cell mass was determined using the sulforhodamine B assay. Results are expressed as the percentage change vs DMSO control values for cells incubated in D-glucose containing media. B, HFF cells were seeded into 96 well plates at a density of 1x10^4 cells per well in 96 well plates. […]
and Nov3r (in DMEM media containing 0.25 g/L D-glucose and 2% dialyzed FCS) for 6 h, followed by the removal of cell culture media for analysis of L-lactate and D-glucose. At the end of the experiment the remaining media was aspirated and the cells transferred to a - 80 °C freezer for subsequent analysis of p(Ser293)E1α levels by MSD ELISA. C. K562 cells […]
analysis of pyruvate dehydrogenase (PDH) activity in cell lysates using a commercially available ELISA-based assay kit (Abcam). Results are expressed as a percentage of the PDH reaction rate in DMSO treated cells. D, Jurkat cells ([…]) were pre-treated in RPMI- […]
suspension in glucose-free RPMI-1640 media supplemented with 2 g/L 1,6-13C-D-Glucose followed by kinetic acquisition of 13C-NMR spectra at 10 min intervals. […]

Experiment [7] has as its target T2, PDK-1. Nature of the experiment: PDK-1 fluorescence polarization assay (fluorescein-labelled ATP site probe). The class given is binding. On the set-up: PDK-1: residues 30-436; made in house; host or cells: E. coli BL21. To be noted: fluorescence polarization; mean of n determinations; read-out: PDK-1 FP, IC50. The procedure:
carbamoyl]-2-(6-hydroxy-3-oxo-3H-xanthen-9-yl)benzoic acid), which binds to the ATP site of PDK resulting in an increase in anisotropy.
as §1

The test system of experiment [8] is ES-2 cells. As to the kind of experiment: Potentiation assay with doxorubicin, ES-2. The class given is cell-based. The procedure: The cells were then incubated for 120 h followed by cell mass determination using the Sulforhodamine B assay. […] Drug interactions were analyzed by the combination index (CI) method based on the method described by Chou. CI values <0.9 indicates synergism, 0.9 to 1.1 additivity, and >1.1 antagonism. The data was expressed in the form of Fa-CI simulation plot generated using calcusyn software (Biosoft). Potentiation assays were carried out as described previously.

Where only a bound is given, the exact number is not on record here.

T2 sequence (Q15118 30-436): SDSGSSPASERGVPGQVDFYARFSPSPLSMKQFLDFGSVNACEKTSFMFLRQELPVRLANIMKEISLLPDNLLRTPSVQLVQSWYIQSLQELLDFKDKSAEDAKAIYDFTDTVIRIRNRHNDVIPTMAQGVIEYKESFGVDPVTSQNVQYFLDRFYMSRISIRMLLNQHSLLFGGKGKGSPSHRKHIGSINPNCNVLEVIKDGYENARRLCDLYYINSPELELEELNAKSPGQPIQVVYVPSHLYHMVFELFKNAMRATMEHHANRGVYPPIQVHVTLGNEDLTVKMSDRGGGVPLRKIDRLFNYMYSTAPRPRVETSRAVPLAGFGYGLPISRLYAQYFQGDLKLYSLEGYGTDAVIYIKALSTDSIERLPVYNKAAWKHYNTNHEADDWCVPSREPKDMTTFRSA
T1 sequence (P08238 whole entry, species assumed): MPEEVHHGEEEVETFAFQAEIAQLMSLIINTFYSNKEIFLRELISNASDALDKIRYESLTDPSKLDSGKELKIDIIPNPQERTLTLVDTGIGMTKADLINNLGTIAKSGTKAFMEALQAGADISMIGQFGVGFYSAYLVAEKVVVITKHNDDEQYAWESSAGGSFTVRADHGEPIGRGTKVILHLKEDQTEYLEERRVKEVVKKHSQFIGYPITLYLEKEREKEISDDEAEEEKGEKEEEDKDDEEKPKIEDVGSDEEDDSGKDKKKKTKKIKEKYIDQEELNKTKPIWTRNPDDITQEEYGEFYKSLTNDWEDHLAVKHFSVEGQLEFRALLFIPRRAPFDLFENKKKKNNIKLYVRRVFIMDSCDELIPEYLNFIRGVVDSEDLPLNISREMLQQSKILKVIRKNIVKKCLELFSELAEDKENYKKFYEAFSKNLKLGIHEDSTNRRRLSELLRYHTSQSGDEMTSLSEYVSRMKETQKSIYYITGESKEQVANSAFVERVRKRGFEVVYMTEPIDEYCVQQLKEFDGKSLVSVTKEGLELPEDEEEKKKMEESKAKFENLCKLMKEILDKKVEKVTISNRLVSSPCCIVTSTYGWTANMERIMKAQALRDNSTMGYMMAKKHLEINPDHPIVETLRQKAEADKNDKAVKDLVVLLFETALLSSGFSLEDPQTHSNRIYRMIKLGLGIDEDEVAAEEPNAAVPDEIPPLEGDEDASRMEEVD

Broadly, the EC50 is the midpoint of the concentration-response curve. A higher EC50 goes with weaker potency. As a reminder, the IC50 is the concentration that gives 50% inhibition. The Kd is the concentration at which binding is half-saturated. The low end stands for tighter binding, the high end for weaker binding. For the compound `C[C@@H]1CN(C(=O)[C@](C)(O)C(F)(F)F)[C@@H](C)CN1C(=O)c1ccc(C#N)cc1` [Nov3r, reference compound], in experiment [1], the EC50 is > 80 µM. In addition, the IC50 in experiment [2] was > 200 µM; in experiment [7], 0.083 µM. The Kd in experiment [3] was 0.008 µM. Further, the “Stimulation of PDK-3 activity” value in experiment [4] was “approximately 2 fold”. Also, in experiment [5], the “Period of time to achieve maximal biomarker suppression” value was determined as 16 min. Further, in experiment [6], the “Effect on glycolytic activity in HFF cells” value is listed as “did not alter glycolytic activity”.
With `Cc1cnc(Cl)nc1-c1ccc(N(Cc2ccc(CNC(=O)C(F)F)cc2)C(=O)c2ccc(O)cc2O)cc1` [VER-246608], the Potentiation of doxorubicin in experiment [8] was 3 fold. For the same compound, the EC50 in experiment [1] (Homo sapiens) was > 80 µM. Besides, in experiment [1] (biomarker for HSP-90 inhibition), the “Induction of HSP-70 in PC-3 cells” value is “lack of a detectable induction”. For the same compound, in experiment [2], the IC50 is > 100 µM. Also, in experiment [5], the “Period of time to achieve maximal biomarker suppression” value worked out at 16 min. Moreover, the “Effect on glycolytic activity in HFF cells” value in experiment [6] was “decrease in extracellular L-lactate and D-glucose levels”.
